The test system of data set [1] is M^pro. Conditions: read-out: M^pro IC50 previously reported, cited from earlier work.
A further data set deals with SARS-CoV-2 M^pro (Severe acute respiratory syndrome coronavirus 2, UniProt P0DTD1). Put plainly: biochemical. Conditions: buffer with 5 mM DTT; for inhibition at 20 µM: 20 μM compound, for values marked a the relative standard deviation of 6% applies, read-out: SARS-CoV-2 M^pro enzyme inhibition (%) 20 μM; for inhibition at 100 µM: 100 μM compound, read-out: SARS-CoV-2 M^pro enzyme inhibition (%) 100 μM; for IC50: read-out: SARS-CoV-2 M^pro IC50. It is filed as biochemical.

Data set [2] is described as follows: Cytotoxicity in Calu-3 cells. Conditions: human.
The subject of data set [3] is SARS-CoV-2. The data set is described as follows: Antiviral assay in Calu-3 cells (spike staining). It counts as cell-based.
Data set [4] has as its target T1, M^pro (Severe acute respiratory syndrome coronavirus 2, UniProt P0DTD1). The data set is described as follows: Competitive 1H CPMG relaxation dispersion NMR with compound 4 as reporter ligand. It counts as binding, SARS-CoV-2. Conditions: competition with compound 4.
The target of data set [5] is T1, M^pro. It is filed as binding. Conditions: 2 μM protein, 50 μM ligand.
Data set [6] in a line: in vitro. Conditions: human.
Data set [7] concerns the target T2, SARS-CoV-2 PLpro (Severe acute respiratory syndrome coronavirus 2, UniProt P0DTD1). The data set is described as follows: PL^pro fluorogenic peptide cleavage assay (substrate Z-RLRGG-AMC). Set-up: papain-like protease (PL^pro; domain of nsp3); His; purchased BPS Biosciences BPS-100735-1. It counts as biochemical. Conditions: for inhibition at 20 µM: read-out: SARS-CoV-2 PL^pro enzyme inhibition (%) 20 μM.

A short description of data set [8]: Cytotoxicity in Caco-2 cells. Conditions: human.
Data set [9] deals with SARS-CoV-2. The data set is described as follows: Antiviral assay in Caco-2 cells. It is filed as cell-based.
Data set [10] deals with T2, SARS-CoV-2 PLpro. The data set is described as follows: biochemical. Further details: papain-like protease (PL^pro; domain of nsp3); purchased Anaspec (Fremont, USA) AS-72263. Conditions: for SARS-CoV-2 PLpro inhibition % enzyme inhibition (20 µM): commercial Anaspec assay kit; for inhibition at 20 µM: read-out: SARS-CoV-2 PLpro inhibition % enzyme inhibition (20 µM).
Data set [11] can be described thus: in vitro. Conditions: human, Caco-2.
Where [12] appears, read: Severe acute respiratory syndrome coronavirus 2, Calu-3 cells, MOI 0.01, 48 h postinfection, read-out: Anti-SARS-CoV-2 activity IC50.
Where [13] appears, read: Severe acute respiratory syndrome coronavirus 2, Caco-2, read-out: Anti SARS-CoV-2 activity Caco-2 IC50 (µM).
The mark [14] stands for this setting: Severe acute respiratory syndrome coronavirus 2, Calu-3, 48 h, read-out: Anti-SARS-CoV-2 activity IC50 (μM).

Several values for one entry are separate records, joined by “and”; a condition that tells them apart may be missing. Equal values may be shown once. Read-outs that look alike come from different tables or passages of the source.

As for `O=c1cc(-c2ccccc2)oc2cc(O)c(O)c(O)c12` [Compound 4, baicalein, reference compound], in the data set with M^pro [1], the IC50 (as a rule, the midpoint of a concentration-inhibition curve) was 0.98 µM. Also, at SARS-CoV-2 M^pro, the inhibition (usually the share of the control response that was lost under treatment) at 20 µM is 8.6% and the inhibition at 100 µM was found to be 90 ± 1.4%.

`CC(C)=CC[C@]12Oc3cc(O)c([C@H]4C=C(C)C[C@H](c5ccc(O)cc5O)[C@H]4C(=O)c4ccc(O)cc4O)c(O)c3C(=O)[C@@]1(O)Oc1cc(O)ccc12` [Compound 12, sanggenon C] displayed a CC50 in data set [2] of 23.6 µM. The IC50 in the data set on SARS-CoV-2 [3] (setting [12]) is 4.6 µM; on SARS-CoV-2 M^pro, 7.24 µM and 7.2 µM. For the same molecule, the “displacement of reporter ligand 4 from M^pro (CPMG-RD)” value (“displacement” below) at M^pro [4] is listed as “displacement from the binding site”. Moreover, the STD signals result on M^pro [5] is reported as “no STD signals were detected”.

In data set [2], `CC(C)=CC[C@@]12Oc3cc(O)c([C@H]4C=C(C)C[C@H](c5ccc(O)cc5O)[C@H]4C(=O)c4ccc(O)cc4O)c(O)c3C(=O)[C@]1(O)Oc1cc(O)ccc12` [Compound 13, sanggenon O] displayed a CC50 of 24.9 µM. The values for the 50% inhibitory concentration (IC50) in the data set with SARS-CoV-2 [3] (setting [12]) and on SARS-CoV-2 M^pro were 8 µM and 6.7 µM, respectively. Also, at M^pro [4], the “displacement” value is on record as “did not significantly displace 4”. Moreover, the STD signals result on M^pro [5] is listed as “no STD signals were detected”.

In “in vitro [6]”, `CC(C)=CCCC1=C[C@H](c2c(O)cc3c(c2O)C(=O)C[C@@H](c2ccc(O)cc2O)O3)[C@@H](C(=O)c2ccc(O)cc2O)[C@H](c2ccc(O)cc2O)C1` [Compound 15, sanggenon G] came in with a CC50 of 49.1 µM. The “selectivity index (SI)” value with SARS-CoV-2 [3] (Calu-3 cells, cytotoxicity vs anti-SARS-CoV-2 activity) was 6.5 and > 5. For the same molecule, the IC50 in the data set on SARS-CoV-2 [3] (setting [12]) was determined as 7.6 µM. Besides, the “displacement” value at M^pro [4] is recorded as “displacement from the binding site”. For the same molecule, at SARS-CoV-2 M^pro, the inhibition at 20 µM is 92.6%; the inhibition at 100 µM is 99.6 ± 0.2%; the IC50 is 4.82 µM and 4.8 µM. In addition, the STD signals result on M^pro [5] was “no STD signals were detected”.

`CC(=O)O[C@H](CC=C(C)C)C1=CC(=O)c2c(O)ccc(O)c2C1=O` [Compound 30, acetylshikonin]: the 50% inhibitory concentration (IC50) was 24.3 µM against SARS-CoV-2 PLpro [7] (Z-RLRGG-AMC substrate), over 100 µM in the data set with SARS-CoV-2 [3] (setting [12]), over 100 µM in the data set on SARS-CoV-2 [9] (setting [13]) and 3.8 µM with M^pro [1] (reported inhibition later described as assay artifact (ref 34)). Besides, the CC50 in [8] is 65.8 µM; in data set [2], over 100 µM. For the same molecule, the “SARS-CoV-2 PLpro inhibition % enzyme inhibition (20 µM)” value at SARS-CoV-2 PLpro [10] is given as “significant enzyme inhibition”. Besides, the inhibition at 20 µM on SARS-CoV-2 PLpro [10] amounted to 100 ± 9.5%.

As to `C=CCc1ccc(O)c(-c2cc(CC=C)ccc2O)c1` [Compound 36, magnolol], the inhibition at 20 µM at SARS-CoV-2 PLpro [7] came out at 4.3 ± 6.6%; at SARS-CoV-2 PLpro [10] it was 58.2 ± 11.5%. Moreover, the CC50 in [8] was 47.3 µM; in [2], over 20 µM. In addition, the IC50 with SARS-CoV-2 [3] (setting [14]) turned out to be 26.8 µM; with SARS-CoV-2 [9] (setting [13]), 17.7 µM. In the data set with SARS-CoV-2 [3] (two different cell lines (Caco-2, Calu-3)), the “antiviral activity against SARS-CoV-2 (in words)” value is on record as “moderately acting antiviral compounds”.

On to `COc1ccc2c(=O)c(Oc3ccc(C(=O)NC(C)Cc4c[nH]c5ccccc45)cc3)coc2c1` (centres unmarked) [Compound 42], for which the inhibition at 20 µM on SARS-CoV-2 PLpro [7] turned out to be 4.89 ± 1.3%; at SARS-CoV-2 PLpro [10], 82.3 ± 25.3%. In addition, the inhibition at 100 µM on SARS-CoV-2 PLpro [7] (read-out: SARS-CoV-2 PL^pro enzyme inhibition (%) 100 μM) is 8.8 ± 7%. Moreover, the CC50 in the data set “in vitro [6]” and in “in vitro [11]” was over 100 µM throughout. Further, the half-inhibitory concentration (IC50) was over 100 µM in the data set with SARS-CoV-2 [3] (setting [14]) and 7.1 µM in the data set on SARS-CoV-2 [9] (Severe acute respiratory syndrome coronavirus 2, Caco-2 cells, read-out: Anti SARS-CoV-2 activity Caco-2 IC50). Further, the “SARS-CoV-2 PLpro inhibition % enzyme inhibition (20 µM)” value on SARS-CoV-2 PLpro [10] is “significant enzyme inhibition”.

The values are drawn from publication PMC9885530, “Identification of Natural Products Inhibiting SARS-CoV-2 by Targeting Viral Proteases: A Combined in Silico and in Vitro Approach” (Journal of Natural Products, 2023).
